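Assay format: 96-well plates, 48-hour exposure. GI50 marks 50% less growth.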 The source made the active and inactive calls. Cut-off read from the data, not from the text of the source: active = GI50 up to about 1.1 µM and inactive = higher.
Tests used:
Assay in all cases: inhibition of tumour cell growth, NCI panel, 48 h
HCT-15 = system: HCT-15
HCT-116 = system: HCT-116
NCI-H226 = system: NCI-H226
CAKI-1 = system: CAKI-1
SR = system: SR
UO-31 = system: UO-31
SNB-75 = system: SNB-75
XF498 = system: XF498
HCC 2998 = system: HCC 2998
NCI-H23 = system: NCI-H23
HT-29 = system: HT-29
K562 = system: K562
SW-620 = system: SW-620
DMS-273 = system: DMS-273
OVCAR-8 = system: OVCAR-8
NCI-H460 = system: NCI-H460
UACC-62 = system: UACC-62
Malme-3M = system: Malme-3M
COLO 205 = system: COLO 205
HOP-18 = system: HOP-18
HL-60 = system: HL-60
SNB-78 = system: SNB-78
OVCAR-5 = system: OVCAR-5
LXFL 529 = system: LXFL 529
RXF 393 = system: RXF 393
TK-10 = system: TK-10
SF-268 = system: SF-268
EKVX = system: EKVX
SK-MEL-2 = system: SK-MEL-2
KM12 = system: KM12
SNB-19 = system: SNB-19
SK-MEL-28 = system: SK-MEL-28
KM-20L2 = system: KM-20L2
SK-OV-3 = system: SK-OV-3
SF-295 = system: SF-295
M14 = system: M14
OVCAR-4 = system: OVCAR-4
ACHN = system: ACHN
DLD-1 = system: DLD-1
A549 = system: A549
U-251 = system: U-251
HOP-62 = system: HOP-62
IGROV-1 = system: IGROV-1
NCI-H522 = system: NCI-H522
OVCAR-3 = system: OVCAR-3
SN12C = system: SN12C
RPMI-8226 = system: RPMI-8226
M19-MEL = system: M19-MEL
UACC-257 = system: UACC-257
MOLT-4 = system: MOLT-4
DMS-114 = system: DMS-114
LOX IMVI = system: LOX IMVI
CCRF-CEM = system: CCRF-CEM
786-0 = system: 786-0
SK-MEL-5 = system: SK-MEL-5
HOP-92 = system: HOP-92
A498 = system: A498
SF-539 = system: SF-539

Measured: GI50

CC1CCCc2c1c1ccc3c(O)cccc3c1oc2=O (configuration not stated)
> 100 µM: HCT-15
inactive: HCT-116 91.8 µM | NCI-H226 > 100 µM | CAKI-1 39.4 µM | SR > 100 µM | UO-31 > 100 µM | SNB-75 8.15 µM | XF498 55 µM | HCC 2998 > 100 µM | NCI-H23 29.9 µM | HT-29 > 100 µM | K562 > 100 µM | SW-620 > 100 µM | DMS-273 31.1 µM | OVCAR-8 31.3 µM | NCI-H460 > 100 µM | UACC-62 35.1 µM | Malme-3M > 100 µM | COLO 205 > 100 µM | HOP-18 26.6 µM | HL-60 > 100 µM | SNB-78 23.1 µM | OVCAR-5 71.8 µM | LXFL 529 48.8 µM | RXF 393 18.8 µM | TK-10 28.8 µM | SF-268 17.3 µM | EKVX 2.05 µM | SK-MEL-2 28.9 µM | KM12 > 100 µM | SNB-19 34.7 µM | SK-MEL-28 > 100 µM | KM-20L2 > 100 µM | SK-OV-3 20.7 µM | SF-295 14.8 µM | M14 > 100 µM | OVCAR-4 14.1 µM | ACHN 19.7 µM | DLD-1 > 100 µM | A549 56.9 µM | U-251 33.8 µM | HOP-62 18.7 µM | IGROV-1 39.6 µM | NCI-H522 13.7 µM | OVCAR-3 64.1 µM | SN12C 43 µM | RPMI-8226 55.1 µM | M19-MEL > 100 µM | UACC-257 > 100 µM | MOLT-4 > 100 µM | DMS-114 19.6 µM | LOX IMVI 95.5 µM | CCRF-CEM 67.1 µM | 786-0 19.5 µM

CCCCCCCCCCCCCC(=O)CSCCNC(=O)CCNC(=O)[C@@H](O)C(C)(C)COP(=O)(O)OP(=O)(O)OCC1OC(n2cnc3c(N)ncnc32)C(O)C1OP(=O)(O)O (some centres not stated)
inactive: HCT-116 15.8 µM | NCI-H226 18.2 µM | UO-31 14.4 µM | SNB-75 5.7 µM | XF498 18.5 µM | HCC 2998 16.5 µM | NCI-H23 18.7 µM | HT-29 18.8 µM | SW-620 19.4 µM | DMS-273 11.2 µM | OVCAR-8 27.4 µM | NCI-H460 25.6 µM | UACC-62 15 µM | Malme-3M 17.9 µM | COLO 205 13.1 µM | SK-MEL-5 18.9 µM | HOP-18 17.5 µM | HL-60 20.5 µM | SNB-78 15.5 µM | OVCAR-5 32.4 µM | LXFL 529 17.5 µM | RXF 393 25 µM | TK-10 68.2 µM | SF-268 20 µM | EKVX 17.9 µM | SK-MEL-2 17.2 µM | KM12 14.6 µM | HOP-92 11.5 µM | SNB-19 18.6 µM | SK-MEL-28 18.3 µM | KM-20L2 19.4 µM | SK-OV-3 14.6 µM | SF-295 13.4 µM | M14 18.1 µM | OVCAR-4 6.75 µM | ACHN 18.2 µM | DLD-1 19 µM | A549 20.1 µM | U-251 18 µM | HOP-62 16 µM | IGROV-1 13.6 µM | NCI-H522 10.6 µM | OVCAR-3 38 µM | SN12C 16.4 µM | A498 18.4 µM | M19-MEL 18.9 µM | UACC-257 18.1 µM | SF-539 16.2 µM | DMS-114 15.6 µM | LOX IMVI 18.4 µM | CCRF-CEM 24.4 µM | 786-0 15.5 µM
17.1 µM: HCT-15

— ChEMBL document CHEMBL1201862, “PubChem BioAssay data set” (2004)
